According to article PMC11892739, “Site-specific molecular glues for the 14-3-3/Tau pS214 protein–protein interaction via reversible covalent imine tethering” (RSC Medicinal Chemistry, 2025):

Molecular target: T1, 14-3-3γ/Tau pS214 interaction (Homo sapiens, UniProt P61981)
T1 construct: made in house; host or cells: NiCo21 (DE3) E. coli
T1 sequence (P61981 1-247): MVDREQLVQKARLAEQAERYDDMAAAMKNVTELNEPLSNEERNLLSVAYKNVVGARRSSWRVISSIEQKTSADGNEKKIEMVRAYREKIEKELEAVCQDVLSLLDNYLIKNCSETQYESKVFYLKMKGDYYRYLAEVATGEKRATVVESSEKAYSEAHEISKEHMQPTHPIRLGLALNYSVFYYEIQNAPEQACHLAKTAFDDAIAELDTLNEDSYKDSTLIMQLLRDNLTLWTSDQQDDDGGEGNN
Test: Fluorescence anisotropy 14-3-3γ titration with compound and monovalent Tau pS214 peptide
Type: binding
Conditions: for apparent cooperativity factor (app. α), 14-3-3γ/Tau pS214: 2D titrations, 14-3-3γ titrated at varied compound concentrations, saturation of the ratio
Protocol: FA assays in which 14-3-3γ was titrated to a constant concentration of compound (250 μM) in the presence of the distinct monovalent Tau peptide (10 nM) were performed.
The determined stabilization factors are concentration-dependent (here 250 μM of compound) and might differ based on assay design. […] The app. α-factors of these compounds for both 14-3-3/Tau complexes were determined by 14-3-3γ titrations in the presence of varied concentrations of the particular compound (Fig. 5d and e). Both compounds reached saturation for both 14-3-3γ/Tau complexes enabling accurate determination of the α-factor. The app. α-factors of aldehydes 1 and 18 were plotted for both 14-3-3γ/Tau complexes to investigate phospho-binding site selective cooperativity (Fig. 5f and h). To do so, the stabilization factors at a given compound concentration were plotted against the compound concentration, leading to the determination of the app. α-factors. […]
chromatography (HisTrap high performance cartridges, Cytiva). Typically two 5 mL columns were used for a 2 L culture in which the lysate was loaded on the column, washed with 10 CV wash buffer (50 mM Hepes, pH 8.0, 300 mM NaCl, 25 mM imidazole, 2 mM βME), and eluted with several fractions (2-4 CV) of elution buffer (50 mM Hepes, pH 8.0, 300 mM NaCl, 250 mM imidazole, 2 mM βME). Fractions containing the 14-3-3 protein were combined and dialyzed into 25 mM HEPES pH 8.0, 200 mM NaCl, 10 mM MgCl2, 2 mM βME, followed by dialysis into 25 mM HEPES, 100 mM NaCl, 10 mM MgCl2, 500 μM TCEP (adjusted to pH 8.0). Dialyzed protein was concentrated to ∼40 mg/mL, analyzed by Q -Tof LC/MS, and aliquots were flash -frozen for storage at −80 °C. […]
0.1% (v/v) Tween20, 0.1% (w/v) BSA). Dilution series were made in polystyrene low -volume 384 -well plates (Corning #4514, Black Round Bottom). Measurements were performed directly after plate preparation, using a Tecan SPARK plate reader at room temperature ( λex: 485±20 nm; λem: 535±25 nm; mirror: automatic; flashes: 30; settle time: 1 ms; gain: optimal; Z -position: calculated from well). Wells containing only fluorescein labelled peptide were used to set as G -factor calibrated from these wells. All data were analyzed using GraphPad Prism (10.0.1) and fitted with a four -parameter logistic model (4PL) to determine binding affinities (dissociation constant, KD). All data shown is background corrected for the signal without 14 -3-3ζ and the mean and standard deviation of technical duplicate is plotted, assay performed in a scientific duplicate for hit compounds.
Fluorescence Anisotropy – 14-3-3 titrations in the presence of compound To characterize the affinity of the Tau peptides for 14-3-3 in the presence of compound, 14-3-3ζ or γ was titrated in a 2-fold dilution series starting at 400 (for the 14-3-3ζ titrations to Tau pS2) or 800 (for the 14-3-3γ titrations to Tau pS214 or pS324) µM. 14-3-3 was added to 10 nM of fluorescein-labeled peptide (Tau pS2, Tau pS214 or Tau pS324) in the presence of 250 µM compound (1% DMSO). The assays were performed in a similar way as described above. Data shown is the average and standard deviation of a technical duplicate, top plateau corrected where needed, assay performed in a scientific duplicate. […]
The peptide screen was performed in a similar way as the 14-3-3ζ titration in the precence of compound.
14-3-3ζ was titrated in a 2-fold dilution series (starting at 400 µM 14-3-3ζ) to 100 nM of fluorescein-labeled peptides and 250 µM compound 18 (1% DMSO) in FA buffer (10 mM HEPES pH 7.4, 150 mM […]
Data shown is the average of a scientific triplicate. […]
DSF was performed using 40 µl samples containing 2.5 µM 14 -3-3ζ, 25 µM Tau peptide (Tau pS2, Tau pS214 or Tau pS324), […] (1% DMSO) and 5x ProteoOrange (Lumiprobe, 5000x stock in DMSO) in 10 mM HEPES, 150 mM NaCl, 50 µM TCEP (pH 7.4). The samples were heated from 35 °C to 79°C at a rate of 0.3 °C per 15 s in a C FX96 Touch Real-Time PCR Detection System (Bio -Rad). Fluorescence […]

Row | SF250μM for the 14-3-3γ/Tau pS214 complex (250 μM compound, 10 nM Tau pS214 peptide, internal DMSO reference) | apparent cooperativity factor (app. α), 14-3-3γ/Tau pS214 | Compound
1 | 8.6 | 10.2 | CCc1ccc(-c2nccn2-c2ccc(C=O)c(Br)c2)cc1 [Compound 18]
2 | – | 3.8 | O=Cc1ccc(-n2ccnc2-c2ccccc2)cc1Br [Compound 1]
